Experimental data reported in ChEMBL document CHEMBL1126485, “Synthesis of nucleoside analogues with a 1,5-anhydrohexitol moiety” (1993).

Experiments:
[1] = system: Human alphaherpesvirus 2; test: Concentration required for inhibition of proliferation of herpes simplex virus type II at 0.07 ug/mL.; assay type: functional
[2] = Concentration required for inhibition of proliferation of herpes simplex virus type I at 0.07 ug/mL.; assay type: functional; conditions: Human alphaherpesvirus 1

Q: Which inhibition at 0.07 µg/mL [1] does the source give for `O=c1[nH]c(=O)n(C2COC(CO)C(O)C2)cc1I` (configuration not stated) here?
A: Its inhibition at 0.07 µg/mL is 50%.

Q: What about the inhibition at 0.07 µg/mL [2] of the same molecule?
A: Its inhibition at 0.07 µg/mL is 50%.
